Data reported in PubChem BioAssay (NCI).
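Dose response: 5 concentrations. Exposure: 48 h. Format: 96-well plates. Endpoint: linear interpolation; highest concentration if not reached. Here, GI50 denotes the concentration required for 50% inhibition of growth. TGI denotes the concentration required for complete inhibition of growth.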

Tests used:
Assay in all cases: DTP human tumour cell line panel, 48 h
RXF 393 renal = tested on: RXF 393 renal
IGROV1 ovarian = tested on: IGROV1 ovarian
OVCAR-4 ovarian = tested on: OVCAR-4 ovarian
NCI-H460 lung = tested on: NCI-H460 lung
COLO 205 colon = tested on: COLO 205 colon
HCT-116 colon = tested on: HCT-116 colon
UACC-257 melanoma = tested on: UACC-257 melanoma
SNB-75 CNS = tested on: SNB-75 CNS
MOLT-4 leukemia = tested on: MOLT-4 leukemia
MDA-MB-435 = tested on: MDA-MB-435
MDA-MB-468 breast = tested on: MDA-MB-468 breast
PC-3 prostate = tested on: PC-3 prostate
BT-549 breast = tested on: BT-549 breast
A498 renal = tested on: A498 renal
HOP-92 NSCLC = tested on: HOP-92 NSCLC
SR leukemia = tested on: SR leukemia
MALME-3M melanoma = tested on: MALME-3M melanoma
MDA-MB-231 breast = tested on: MDA-MB-231 breast
OVCAR-5 ovarian = tested on: OVCAR-5 ovarian
NCI-H23 lung = tested on: NCI-H23 lung
M14 melanoma = tested on: M14 melanoma
A549 NSCLC = tested on: A549 NSCLC
NCI-H522 lung = tested on: NCI-H522 lung
SN12C renal = tested on: SN12C renal
786-0 renal = tested on: 786-0 renal
OVCAR-3 ovarian = tested on: OVCAR-3 ovarian
SF-268 CNS = tested on: SF-268 CNS
UACC-62 melanoma = tested on: UACC-62 melanoma
HCT-15 colon = tested on: HCT-15 colon
K-562 leukemia = tested on: K-562 leukemia
SF-295 CNS = tested on: SF-295 CNS
SK-MEL-2 melanoma = tested on: SK-MEL-2 melanoma
SK-MEL-5 melanoma = tested on: SK-MEL-5 melanoma
DU-145 prostate = tested on: DU-145 prostate
HL-60(TB) leukemia = tested on: HL-60(TB) leukemia
HT29 colon = tested on: HT29 colon
UO-31 renal = tested on: UO-31 renal
SK-MEL-28 melanoma = tested on: SK-MEL-28 melanoma
U251 CNS = tested on: U251 CNS
HCC-2998 colon = tested on: HCC-2998 colon
SF-539 CNS = tested on: SF-539 CNS
RPMI-8226 leukemia = tested on: RPMI-8226 leukemia
OVCAR-8 ovarian = tested on: OVCAR-8 ovarian
TK-10 renal = tested on: TK-10 renal
HOP-62 NSCLC = tested on: HOP-62 NSCLC
EKVX NSCLC = tested on: EKVX NSCLC
ACHN renal = tested on: ACHN renal
T-47D breast = tested on: T-47D breast
NCI-H226 lung = tested on: NCI-H226 lung
SNB-19 CNS = tested on: SNB-19 CNS
SK-OV-3 ovarian = tested on: SK-OV-3 ovarian
SW-620 colon = tested on: SW-620 colon
HS 578T breast = tested on: HS 578T breast
KM12 colon = tested on: KM12 colon
CAKI-1 renal = tested on: CAKI-1 renal
CCRF-CEM leukemia = tested on: CCRF-CEM leukemia
MCF7 breast = tested on: MCF7 breast

O=c1nc(-c2ccccc2)cc(-c2cc3ccccc3nc2Cl)[nH]1
GI50 (RXF 393 renal): 11.1 µM
TGI (RXF 393 renal): 25.1 µM
GI50 (IGROV1 ovarian): 12.8 µM
TGI (IGROV1 ovarian): 27.9 µM
GI50 (OVCAR-4 ovarian): 17.8 µM
TGI (OVCAR-4 ovarian): 61.4 µM
GI50 (NCI-H460 lung): 3 µM
TGI (NCI-H460 lung): 10.3 µM
GI50 (COLO 205 colon): 8.33 µM
TGI (COLO 205 colon): 25.4 µM
GI50 (HCT-116 colon): 1.89 µM
TGI (HCT-116 colon): 3.9 µM
GI50 (UACC-257 melanoma): 17 µM
TGI (UACC-257 melanoma): 36.9 µM
GI50 (SNB-75 CNS): 3.82 µM
TGI (SNB-75 CNS): 20.6 µM
GI50 (MOLT-4 leukemia): 3.07 µM
TGI (MOLT-4 leukemia): 12.4 µM
GI50 (MDA-MB-435): 6.96 µM
TGI (MDA-MB-435): 22.3 µM
GI50 (MDA-MB-468 breast): 4.24 µM
TGI (MDA-MB-468 breast): 19.5 µM
GI50 (PC-3 prostate): 6.11 µM
TGI (PC-3 prostate): 26.4 µM
GI50 (BT-549 breast): 2.61 µM
TGI (BT-549 breast): 13.3 µM
GI50 (A498 renal): 21.2 µM
TGI (A498 renal): 43.5 µM
GI50 (HOP-92 NSCLC): 4.21 µM
TGI (HOP-92 NSCLC): 22.4 µM
GI50 (SR leukemia): 0.549 µM
TGI (SR leukemia): 4.86 µM
GI50 (MALME-3M melanoma): 12.4 µM
TGI (MALME-3M melanoma): 26.4 µM
GI50 (MDA-MB-231 breast): 6.12 µM
TGI (MDA-MB-231 breast): 19.3 µM
GI50 (OVCAR-5 ovarian): 12.2 µM
TGI (OVCAR-5 ovarian): 25.3 µM
GI50 (NCI-H23 lung): 10.7 µM
TGI (NCI-H23 lung): 39.6 µM
GI50 (M14 melanoma): 12 µM
TGI (M14 melanoma): 31.6 µM
GI50 (A549 NSCLC): 11.6 µM
TGI (A549 NSCLC): 80.3 µM
GI50 (NCI-H522 lung): 8.4 µM
TGI (NCI-H522 lung): 22.3 µM
GI50 (SN12C renal): 11.2 µM
TGI (SN12C renal): 23.9 µM
GI50 (786-0 renal): 3.39 µM
TGI (786-0 renal): 13.3 µM
GI50 (OVCAR-3 ovarian): 3.38 µM
TGI (OVCAR-3 ovarian): 12.8 µM
GI50 (SF-268 CNS): 4.97 µM
TGI (SF-268 CNS): 18.6 µM
GI50 (UACC-62 melanoma): 7.98 µM
TGI (UACC-62 melanoma): 20.9 µM
GI50 (HCT-15 colon): 2.12 µM
TGI (HCT-15 colon): 5.22 µM
GI50 (K-562 leukemia): 2.71 µM
TGI (K-562 leukemia): 9.19 µM
GI50 (SF-295 CNS): 10.1 µM
TGI (SF-295 CNS): 24.1 µM
GI50 (SK-MEL-2 melanoma): 17.1 µM
TGI (SK-MEL-2 melanoma): 34 µM
GI50 (SK-MEL-5 melanoma): 17.6 µM
TGI (SK-MEL-5 melanoma): 33.4 µM
GI50 (DU-145 prostate): 7.23 µM
TGI (DU-145 prostate): 20.3 µM
GI50 (HL-60(TB) leukemia): 2.27 µM
TGI (HL-60(TB) leukemia): 6.67 µM
GI50 (HT29 colon): 6.62 µM
TGI (HT29 colon): 24.8 µM
GI50 (UO-31 renal): 3.98 µM
TGI (UO-31 renal): 18 µM
GI50 (SK-MEL-28 melanoma): 11.1 µM
TGI (SK-MEL-28 melanoma): 23.3 µM
GI50 (U251 CNS): 1.62 µM
TGI (U251 CNS): 4.25 µM
GI50 (HCC-2998 colon): 16.9 µM
TGI (HCC-2998 colon): 33.7 µM
GI50 (SF-539 CNS): 2.05 µM
TGI (SF-539 CNS): 5.1 µM
GI50 (RPMI-8226 leukemia): 2.2 µM
TGI (RPMI-8226 leukemia): 7.19 µM
GI50 (OVCAR-8 ovarian): 3.71 µM
TGI (OVCAR-8 ovarian): 18.6 µM
GI50 (TK-10 renal): 16.4 µM
TGI (TK-10 renal): 41.5 µM
GI50 (HOP-62 NSCLC): 5.23 µM
TGI (HOP-62 NSCLC): 20.6 µM
GI50 (EKVX NSCLC): 14.5 µM
TGI (EKVX NSCLC): 36.8 µM
GI50 (ACHN renal): 5.59 µM
TGI (ACHN renal): 18.2 µM
GI50 (T-47D breast): 21.4 µM
TGI (T-47D breast): > 100 µM
GI50 (NCI-H226 lung): 11.2 µM
TGI (NCI-H226 lung): 28.1 µM
GI50 (SNB-19 CNS): 3.92 µM
TGI (SNB-19 CNS): 15.8 µM
GI50 (SK-OV-3 ovarian): 21.7 µM
TGI (SK-OV-3 ovarian): > 100 µM
GI50 (SW-620 colon): 1.93 µM
TGI (SW-620 colon): 3.91 µM
GI50 (HS 578T breast): 12.3 µM
TGI (HS 578T breast): 60.2 µM
GI50 (KM12 colon): 1.96 µM
TGI (KM12 colon): 4.39 µM
GI50 (CAKI-1 renal): 10.1 µM
TGI (CAKI-1 renal): 23 µM
GI50 (CCRF-CEM leukemia): 2.75 µM
TGI (CCRF-CEM leukemia): 9.32 µM
GI50 (MCF7 breast): 2.53 µM
TGI (MCF7 breast): 14.8 µM
